Where two headings read alike, the source gives them in different places. Values belong to the compound of their own block, whether it stands above or below them.
Experiments:
[1] = molecular target: KCNQ2 potassium channel (CHO-KCNQ2 cells) (Homo sapiens (Human), UniProt O43526); experiment: Activity test of potassium ion channel opener (FDSS/μCELL detection, FluxOR potassium ion channel assay); assay type: cell-based; conditions: for EC50: CHO-KCNQ2 cells, FluxOR fluorescence, FDSS/μCELL; for increase of activity versus 6-membered ring comparison compound (ratio of EC50): 03043 vs compound A, 03058 vs compound B
Sequence of KCNQ2 potassium channel (CHO-KCNQ2 cells) (O43526 whole entry): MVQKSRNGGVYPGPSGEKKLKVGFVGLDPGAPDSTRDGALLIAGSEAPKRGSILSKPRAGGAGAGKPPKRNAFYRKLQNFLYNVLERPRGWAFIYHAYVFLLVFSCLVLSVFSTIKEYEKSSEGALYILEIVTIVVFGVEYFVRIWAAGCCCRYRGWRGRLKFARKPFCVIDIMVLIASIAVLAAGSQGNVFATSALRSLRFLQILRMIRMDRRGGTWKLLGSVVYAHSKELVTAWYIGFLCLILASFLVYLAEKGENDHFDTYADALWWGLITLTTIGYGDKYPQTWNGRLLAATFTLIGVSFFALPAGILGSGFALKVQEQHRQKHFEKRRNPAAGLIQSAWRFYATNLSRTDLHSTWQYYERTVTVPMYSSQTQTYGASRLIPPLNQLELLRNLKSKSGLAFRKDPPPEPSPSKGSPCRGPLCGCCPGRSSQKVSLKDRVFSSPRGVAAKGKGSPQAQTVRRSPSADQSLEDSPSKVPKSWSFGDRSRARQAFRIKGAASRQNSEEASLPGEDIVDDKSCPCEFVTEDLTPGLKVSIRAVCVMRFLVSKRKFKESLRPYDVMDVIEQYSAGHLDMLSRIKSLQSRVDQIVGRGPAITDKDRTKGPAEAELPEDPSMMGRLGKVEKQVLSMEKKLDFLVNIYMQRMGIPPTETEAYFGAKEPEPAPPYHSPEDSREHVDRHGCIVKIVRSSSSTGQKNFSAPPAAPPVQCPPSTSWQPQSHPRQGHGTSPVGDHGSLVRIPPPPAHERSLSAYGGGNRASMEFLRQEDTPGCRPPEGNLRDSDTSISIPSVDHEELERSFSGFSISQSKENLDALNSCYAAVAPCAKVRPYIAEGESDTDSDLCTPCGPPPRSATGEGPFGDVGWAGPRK
Experimental: Activity Test of Potassium Ion Channel Opener (FDSS/ρCELL Detection)
Cell preparation: CHO-KCNQ2 cells were cultured in a 175 cm^2 culture flask, and when the cells was grown to a density of 60-80%, the culture medium was removed, washed with 7 mL PBS (Phosphate Buffered Saline) once, then 3 mL 0.25% Trypsin was added to digest. After the digestion was completed, 7 mL culture medium (90% DMEM/F12+10% FBS+500 μg/mL G418) was added to neutralize, centrifugated for 3 minutes at 800 rpm. The supernatant was aspirated, then 5 mL culture medium was added to resuspend, and then the cells were counted.
Cell plating: The density to 3×10^4/well was adjusted according to the results of cell counting. After standing at room temperature for 30 minutes, the cells were placed in a 37° C. CO2 incubator and incubated overnight for 16-18 hours. The cell density reached about 80%.
Fluorescent dye incubation: The cell culture medium was discarded, 80 μL/well loading buffer was added, and the cells were incubated in dark at room temperature for 60 minutes.
Compound incubation: the loading buffer was discarded, 80 μL/well prepared compound solution was added, incubated at room temperature and in dark for 20 minutes.
Fluorescence data collection: FDSS/μCELL instrument for real-time fluorescence is used for signal recording, wherein excitation wavelength was 480 nm, emission wavelength was 540 nm, and signals were recorded 1 times per second, after baseline was recorded for 10 seconds, the addition of 20 μL/well stimulation buffer was started, and then the signal was continuously record until the end of 180 seconds.
loading buffer: 10 mL/plate, the preparation method was as follows:
Test buffer sample: 100 mL/plate, the preparation method was as follows:
Stimulation buffer: 5 mL/plate, the preparation method was as follows:
The above buffer was from a commercially available kit, the kit name was FluxOR potassium ion channel assay, the manufacturer's brand was Invitrogen, the article number was F10017, the lot number was 913728.
20 mM DMSO compound mother liquor was prepared, 10 μL of 20 mM compound mother liquor was took and added into 20 μL DMSO solution, serially diluted 3 times to 8 intermediate concentrations; then the middle concentration of the compound was took to the test buffer, 200 times dilution to get the final concentration to be tested, 80 μL was took and added to the test plate.
The highest test concentration was 100 μM, followed by […], 33.33, 11.11, 3.70, 1.23, 0.41, 0.137, 0.045 μM, total 8 concentrations. Each concentration 3 replicate holes.
This concentration of DMSO had no effect on the KCNQ2 potassium channel.
Experimental data was analyzed by Excel 2007 and GraphPad Prism 5.0 software, and the ratio of 180 seconds was calculated to calculate the excitement effect. The excitement effect of the compound is calculated by the following formula: […]
Environment: Temperature about 25° C.
Reagent: FluxOR™ Detection Kit (Invitrogen, Cat #[…])
The experimental data in the report might meet the following criteria: Z′ Factor>0.5
2. Determination Results: See Table 1 for Details, where the Smaller EC50 was, the Higher the Activity of the Corresponding Compound was.
References for the above test methods:
(2) Jinfeng Yue et al. Acta Pharmacologica Sinica, 2016, 37:105-110.

[2] = Pharmacokinetics of compounds 03043 and 03044 in male SD rats; assay type: in vivo; conditions: for AUC(0-inf) / AUC(0-t) / Cmax / half-life / Tmax: rat, plasma
Excerpt: (§1) Study on the Pharmacokinetics of Compounds 03043 and 03044
(§2) 1) Research purpose: To obtain the pharmacokinetic characteristics of compounds 03043 and 03044 in male SD rats and their blood-brain barrier (BBB) penetration
(§3) 15 healthy male SD rats (weight range of 200-250 g) were taken and divided into 3 groups, 3 rats were used for intravenous administration in group 1, 3 rats were used for oral administration in group 2, and 9 rats were used for the determination of cerebral blood ratio after oral administration in group 3 (3 rats/time point). Group 2 and group 3 were fasted for more than 12 hours. Intravenous: 1 mg/kg, oral 5 mg/kg, at time point 0.083 (only group 1), 0.25 (only groups 1 and 2), 0.5 (only groups 1 and 2), 1.2 (only groups 1 and 2). After 4, 8 and 24 h (only group 1 and group 2), blood was collected by jugular vein or cardiac puncture, and at least 0.3 mL of whole blood was collected into an EDTA-K2 anticoagulant tube. Within half an hour, the plasma was collected by centrifugation (6000 revolutions, 8 minutes, 4° C.), frozen at −20° C. for later use. At the same time, brain tissues were collected from group 3 (time points were 1, 4, and 8 h respectively), washed with normal saline, blotted dry with absorbent paper, weighed, and frozen at −20° C. for use. (Compound preparation: 5% DMAC+10% Solutol HS 15+85% Saline was used to prepare a solution having a concentration of iv 0.2 mg/mL and po 0.3 mg/mL).
(§4) Experimental results: According to the blood drug concentration data obtained, the non-compartmental model of WinNonlin® 7.0 software (Pharsight, USA) was used to calculate the pharmacokinetic parameters after administration.

[3] = Plasma and brain concentration / cerebral blood ratio (BBB penetration) in male SD rats after single oral administration; assay type: in vivo; conditions: rat; for concentration at 1 h / Kp at 1 h: 1 h after single oral administration 5 mg/kg; for concentration at 4 h / Kp at 4 h: 4 h after single oral administration 5 mg/kg; for concentration at 8 h / Kp at 8 h: 8 h after single oral administration 5 mg/kg; for Kp / Kp at 1 h / Kp at 4 h / Kp at 8 h: brain/plasma; for Kp: 5 mg/kg, at each time point (1, 4, 8 h), oral administration
Excerpt: as §1, §2, §3

[4] = Pharmacokinetic study of compound 03058 in male ICR mice; assay type: in vivo
Experimental: Pharmacokinetic Study of Compound 03058
1) Research purpose: To obtain the pharmacokinetic characteristics of compound 03058 in male ICR mice
6 healthy male ICR mice (body weight range of 18-22 grams) were taken, divide them into 2 groups (3 mice/group, and 3 mice/time point), fasted for more than 12 hours (only oral administration group), and administered intravenously(0.05 mg/kg), orally (1 mg/kg), at time points of 0.083 (intravenous administration only), 0.25, 0.5, 1, 2, 4, 6 (only oral administration). After 8 and 24 h, blood were collected by cardiac puncture. At least 0.3 mL of whole blood was transferred to the EDTA-K2 anticoagulation tube, and within half an hour, the plasma was collected by centrifugation (6000 rpm, 8 minutes, 4° C.), and frozen at −20° C. for use. (Compound configuration: 5% DMAC+10% Solutol HS 15+85% Saline was used to prepare a solution having a concentration of iv 0.01 mg/mL and po 0.1 mg/mL).
as §4

[5] = brain, read-out: Brain concentration
[6] = plasma, read-out: Plasma concentration
[7] = mouse, Intravenous 0.05 mg/kg, plasma
[8] = mouse, po, Gavage 1 mg/kg, plasma

F ([2]; Gavage 5 mg/kg): 13.9%
AUC(0-inf) ([2]; Intravenous 1 mg/kg): 1060 ng·h/mL
AUC(0-t) ([2]; Intravenous 1 mg/kg): 1040 ng·h/mL
Cmax ([2]; Intravenous 1 mg/kg): 1740 ng/mL
half-life ([2]; Intravenous 1 mg/kg): 1.8 h
AUC(0-inf) ([2]; po, Gavage 5 mg/kg): 889 ng·h/mL
AUC(0-t) ([2]; po, Gavage 5 mg/kg): 723 ng·h/mL
Cmax ([2]; po, Gavage 5 mg/kg): 118 ng/mL
Tmax ([2]; po, Gavage 5 mg/kg): 0.67 h
half-life ([2]; po, Gavage 5 mg/kg): 7.08 h
EC50 [1]: 57 nM
concentration at 1 h [3, 5]: 251 ng/g
concentration at 4 h [3, 5]: 102 ng/g
concentration at 8 h [3, 5]: 67.6 ng/g
Kp [3]: 1 to 2.4
Kp at 1 h [3]: 2.2
Kp at 4 h [3]: 2.1
Kp at 8 h [3]: 1.7
concentration at 1 h [3, 6]: 112 ng/mL
concentration at 4 h [3, 6]: 50.2 ng/mL
concentration at 8 h [3, 6]: 41.3 ng/mL
SMILES: Cc1cc(N2CCCc3cc(Cl)sc3C2)cc(C)c1NC(=O)CC(C)(C)C [Compound 03044, N-(4-(2-chloro-4,5,6,8-tetrahydro-7H-thieno[2,3-c]azepin-7-yl)-2,6-dimethylphenyl)-3,3-dimethylbutanamide]

EC50 [1]: 88 nM
SMILES: Cc1cc(N2CCCc3ccsc3C2)cc(C)c1NC(=O)CC(C)(C)C [Compound 03026, N-(2,6-dimethyl-4-(4,5,6,8-tetrahydro-7H-thieno[2,3-c]azepin-7-yl)phenyl)-3,3-dimethylbutanamide]

EC50 [1]: 272 nM
SMILES: Cc1cc(N2CCCc3sccc3C2)cc(C)c1NC(=O)CC(C)(C)C [Compound 03028, N-(2,6-dimethyl-4-(4,6,7,8-tetrahydro-5H-thieno[3,2-c]azepin-5-yl)phenyl)-3,3-dimethylbutanamide]

EC50 [1]: 98 nM
SMILES: Cc1cc(N2CCc3cc(F)ccc3C2)cc(C)c1NC(=O)CC(C)(C)C [Compound B, reference compound]

EC50 [1]: 147 nM
SMILES: Cc1cc(N2CCCc3cscc3C2)cc(C)c1NC(=O)CC(C)(C)C [Compound 03027, N-(2,6-dimethyl-4-(4,6,7,8-tetrahydro-5H-thieno[3,4-c]azepin-5-yl)phenyl)-3,3-dimethylbutanamide]

EC50 [1]: 6480 nM
SMILES: Cc1cc(N2CCCCc3ncccc32)cc(C)c1NC(=O)CC(C)(C)C [Compound 03037, N-(2,6-Dimethyl-4-(6,7,8,9-tetrahydro-5H-pyrido[32-b]azepin-5-yl)phenyl)-3,3-dimethylbutanamide]

increase of activity versus 6-membered ring comparison compound (ratio of EC50) [1]: 12.25 times
EC50 [1]: 8 nM
F ([4]; Gavage 1 mg/kg): 30.47%
AUC(0-inf) [4, 7]: 7.2 ng·h/mL
AUC(0-t) [4, 7]: 7.2 ng·h/mL
Cmax [4, 7]: 15.1 ng/mL
half-life [4, 7]: 0.73 h
AUC(0-inf) [4, 8]: 43.6 ng·h/mL
AUC(0-t) [4, 8]: 43.6 ng·h/mL
Cmax [4, 8]: 17 ng/mL
Tmax [4, 8]: 0.5 h
half-life [4, 8]: 1.05 h
SMILES: Cc1cc(N2CCOc3cc(F)ccc3C2)cc(C)c1NC(=O)CC(C)(C)C [Compound 03058, N-(4-(8-fluoro-2,3-dihydrobenzo[f][1,4]oxazepin-4(5H)-yl)-2,6-dimethylphenyl)-3,3-dimethylbutanamide]

F ([2]; Gavage 5 mg/kg): 12.79%
AUC(0-inf) ([2]; Intravenous 1 mg/kg): 964 ng·h/mL
AUC(0-t) ([2]; Intravenous 1 mg/kg): 957 ng·h/mL
Cmax ([2]; Intravenous 1 mg/kg): 2040 ng/mL
half-life ([2]; Intravenous 1 mg/kg): 1.42 h
AUC(0-inf) ([2]; po, Gavage 5 mg/kg): 1110 ng·h/mL
AUC(0-t) ([2]; po, Gavage 5 mg/kg): 612 ng·h/mL
Cmax ([2]; po, Gavage 5 mg/kg): 129 ng/mL
Tmax ([2]; po, Gavage 5 mg/kg): 0.25 h
half-life ([2]; po, Gavage 5 mg/kg): 12.3 h
increase of activity versus 6-membered ring comparison compound (ratio of EC50) [1]: about 2.83 times
EC50 [1]: 23 nM
concentration at 1 h [3, 5]: 67.1 ng/g
concentration at 4 h [3, 5]: 65.7 ng/g
concentration at 8 h [3, 5]: 20 ng/g
Kp [3]: 1 to 2.4
Kp at 1 h [3]: 2.4
Kp at 4 h [3]: 1.5
Kp at 8 h [3]: 1
concentration at 1 h [3, 6]: 32.2 ng/mL
concentration at 4 h [3, 6]: 47.9 ng/mL
concentration at 8 h [3, 6]: 20.8 ng/mL
SMILES: Cc1cc(N2CCCc3sc(Cl)cc3C2)cc(C)c1NC(=O)CC(C)(C)C [Compound 03043, N-(4-(2-chloro-4,6,7,8-tetrahydro-5H-thieno[3,2-c]azepin-5-yl)-2,6-dimethylphenyl)-3,3-dimethylbutanamide]

EC50 [1]: 14700 nM
SMILES: Cc1cc(N2CCCc3cccnc3C2)cc(C)c1NC(=O)CC(C)(C)C [Compound 03029, N-(2,6-dimethyl-4-(5,6,7,9-tetrahydro-8H-pyrido[2,3-c]azepin-8-yl)phenyl)-3,3-dimethylbutanamide]

Second part, the compound before the results:

SMILES: Cc1cc(N2CCCCc3sc(Cl)cc32)cc(C)c1NC(=O)CC(C)(C)C [Compound 03049, N-(4-(2-chloro-5,6,7,8-tetrahydro-4H-thieno[3,2-b]azepin-4-yl)-2,6-dimethylphenyl)-3,3-dimethylbutanamide]
EC50 [1]: 260 nM

SMILES: Cc1cc(N2CCCOc3cc(F)ccc32)cc(C)c1NC(=O)CC(C)(C)C [Compound 03059, N-(4-(8-fluoro-3,4-dihydrobenzo[b] [1,4]oxazepine-5(2H)-yl)-2,6-dimethylphenyl)-3,3-dimethylbutanamide]
EC50 [1]: 860 nM

SMILES: O=C(Nc1ccc(Cl)nc1)c1ccc(F)cc1 [ZTZ240, reference compound]
EC50 [1]: 8230 nM

SMILES: Cc1cc2c(s1)CCCCN2c1cc(C)c(NC(=O)CC(C)(C)C)c(C)c1 [Compound 03039, N-(2,6-dimethyl-4-(2-methyl-5,6,7,8-tetrahydro-4H-thieno[3,2-b]azepin-4-yl)phenyl)-3,3-dimethylbutyramide]
EC50 [1]: 409 nM

SMILES: Cc1cc(N2CCOc3cc(F)ccc32)cc(C)c1NC(=O)CC(C)(C)C [Compound 03060, N-(2,6-dimethyl-6-(1-tert-butylacetyl)aniline)) 4-(7-fluoro-2,3-dihydro-4H-benzo[1,4] oxazine]
EC50 [1]: > 100000 nM

SMILES: Cc1cc(N2CCCCc3sccc32)cc(C)c1NC(=O)CC(C)(C)C [Compound 03034, (N-(2,6-dimethyl-6-(1-tert-butylacetyl)aniline))-(5,6,7,8-tetrahydro-4H)-thieno [3,2]azaanthracene]
EC50 [1]: 71 nM

SMILES: Cc1ccc2c(c1)COCCN2c1cc(C)c(NC(=O)CC(C)(C)C)c(C)c1 [Compound 03066]
EC50 [1]: 49 nM

Source: patent US11365181B2, “P-phenylenediamine derivative as potassium channel regulator and preparation method and medical application thereof” (Shanghai Zhimeng Biopharma, Inc., priority 2018, dated 2022)
